Source: patent US20190337971A1, “PANTETHEINE DERIVATIVES FOR THE TREATMENT OF NEUROLOGIC DISORDERS” (Retrophin, Inc., priority 2016, published 2019)

test system: PANK2−/− IMR32 cells; assay: Coenzyme A assay in PANK2 silenced cells (LC-MS quantification of free CoA); type: cell-based, human; conditions: Homo sapiens, IMR-32; compound concentration 1 uM; fold increase in CoA levels relative to controls; treated twice, 24 h + 24 h
Experimental: A human neuroblastoma IMR32 cell line (ATCC) with stably PANK2 silencing was obtained by lentiviral-delivered small hairpin RNA and cultured in MEM (Invitrogen) supplemented with 10% fetal bovine serum, 2 mM glutamine, 1% penicillin-streptomycin, 1 mM sodium pyruvate, 1 mM non-essential amino acids, and 1.5 g/l sodium bicarbonate.
A non-silencing shRNA construct (scrambled shRNA) and an empty vector expressing GFP alone were used as negative controls. The GFP tag subcloned into the lentiviral vectors was used to monitor the transfection efficiency.
Three days after transduction medium was removed and replaced with fresh medium containing […] puromycin. […] The level of PANK2 expression in selected clones was assessed by Western Blot analysis.
To quantify CoA, PANK2−/− IMR32 cells were plated on 12-well culture plates (Corning) at a density of 0.2×10^6 cells per well. […] Controls with medium containing 0.1% DMSO without test compounds were also included in each plate. […] Before LC-MS analysis of CoA levels, cells were harvested, counted, and collected in a 15 ml falcon tube and centrifuged at 200×g for 5 min at 4° C. Supernatant was removed and cell pellet was washed in 10 ml of ice-cold PBS. To further confirm that the numbers of cells in each sample were equivalent, an equal fraction of pellet was collected from each sample and subjected to protein determination analysis. After centrifugation and supernatant removal, the cell pellet was rapidly frozen in Liquid Nitrogen and stored at −80° C. until analysis.
Intracellular CoA levels were calculated considering an intracellular volume of 1 million cells=2 μl.
The 1*10^6 cellular pellet was extracted with 120 μl of aqueous 20% TFA.
100 μL samples of supernatant were dried under N2 at 20° C. in the dark.
Samples were re-dissolved in 100 μl of 10 mM NH4^+ AcO^− buffer pH 5.1+IS (Dextrorphan 50 ng/ml), stirred for 2 min, sonicated in ultrasonic bath for 1 min, then stirred again for 1 min, and injected into LC-MS.
LC-MS/MS was performed using an Agilent HPLC (1100 Series, USA). The LC system was interfaced with an API-4000 Q-Trap triple quadrupole mass spectrometer (AB Sciex, Toronto, Canada) equipped with a TurboIonSpray ionization source operating in positive ion mode. Analyst™ software version 1.6 (AB Sciex, Toronto, Canada) was used for data acquisition and processing. CoA was separated using a Luna C18 column (2.0×50 mm; 5 μm particle size), column at 25° C. and flow rate of 0.2 ml/min. Injection volume was 15 μl. The mobile phases consisted of water containing 10 mM ammonium acetate pH 7 (mobile phase A) and MeCN-2-propanol 9:1 (mobile phase B).
Results are expressed as fold increase in CoA levels relative to controls (using LC-MS quantification of free CoA).

In order of falling fold induction at 1 µM:
1. CC(=O)SCCNC(=O)CCNC(=O)[C@@H]1O[P@@](=O)(OCOC(=O)c2cc(C(C)(C)C)n[nH]2)OCC1(C)C [R1016, (((2S,4R)-4-((3-((2-(acetylthio)ethyl)amino)-3-oxopropyl)carbamoyl)-5,5-dimethyl-2-oxido-1,3,2-dioxaphosphinan-2-yl)oxy)methyl 3-(tert-butyl)-1H-pyrazole-5-carboxylate]  323
2. CC(=O)SCCNC(=O)CCNC(=O)[C@@H]1OP(=O)(OCOC(=O)c2ccccc2)OCC1(C)C (stereo partly drawn) [R1009, (((4R)-4-((3-((2-(acetylthio)ethyl)amino)-3-oxopropyl)carbamoyl)-5,5-dimethyl-2-oxido-1,3,2-dioxaphosphinan-2-yl)oxy)methyl benzoate]  69.5
3. CC(=O)SCCNC(=O)CCNC(=O)[C@@H]1OP(=O)(OCOC(=O)c2ccc(C)cc2)OCC1(C)C (stereo partly drawn) [R1036, (((4R)-4-((3-((2-(acetylthio)ethyl)amino)-3-oxopropyl)carbamoyl)-5,5-dimethyl-2-oxido-1,3,2-dioxaphosphinan-2-yl)oxy)methyl 4-methylbenzoate]  52.2
4. CC(=O)SCCNC(=O)CCNC(=O)[C@@H]1OP(=O)(OCOC(=O)c2ccc(C(F)(F)F)cc2)OCC1(C)C (stereo partly drawn) [R1037, (((4R)-4-((3-((2-(acetylthio)ethyl)amino)-3-oxopropyl)carbamoyl)-5,5-dimethyl-2-oxido-1,3,2-dioxaphosphinan-2-yl)oxy)methyl 4-(trifluoromethyl)benzoate]  30.1
5. CC(=O)SCCNC(=O)CCNC(=O)[C@@H]1OP(=O)(OCOC(=O)c2cccc(Cl)c2)OCC1(C)C (stereo partly drawn) [R1034, (((4R)-4-((3-((2-(acetylthio)ethyl)amino)-3-oxopropyl)carbamoyl)-5,5-dimethyl-2-oxido-1,3,2-dioxaphosphinan-2-yl)oxy)methyl 3-chlorobenzoate]  29.6
6. CC(=O)SCCNC(=O)CCNC(=O)[C@@H]1OP(=O)(OCOC(=O)c2cccc(C)c2)OCC1(C)C (stereo partly drawn) [R1039, (((4R)-4-((3-((2-(acetylthio)ethyl)amino)-3-oxopropyl)carbamoyl)-5,5-dimethyl-2-oxido-1,3,2-dioxaphosphinan-2-yl)oxy)methyl 3-methylbenzoate]  27.4
7. COc1cccc(C(=O)OCOP2(=O)OCC(C)(C)[C@H](C(=O)NCCC(=O)NCCSC(C)=O)O2)c1 (stereo partly drawn) [R1038, (((4R)-4-((3-((2-(acetylthio)ethyl)amino)-3-oxopropyl)carbamoyl)-5,5-dimethyl-2-oxido-1,3,2-dioxaphosphinan-2-yl)oxy)methyl 3-methoxybenzoate]  26.2
8. CC(=O)SCCNC(=O)CCNC(=O)[C@@H]1OP(=O)(OCOC(=O)c2ccc(Cl)cc2)OCC1(C)C (stereo partly drawn) [R1033, (((4R)-4-((3-((2-(acetylthio)ethyl)amino)-3-oxopropyl)carbamoyl)-5,5-dimethyl-2-oxido-1,3,2-dioxaphosphinan-2-yl)oxy)methyl 4-chlorobenzoate]  25.8
9. CC(=O)SCCNC(=O)CCNC(=O)[C@@H]1O[P@](=O)(OCOC(=O)c2cc(C(C)(C)C)nn2C)OCC1(C)C [R1044, (((2R,4R)-4-((3-((2-(acetylthio)ethyl)amino)-3-oxopropyl)carbamoyl)-5,5-dimethyl-2-oxido-1,3,2-dioxaphosphinan-2-yl)oxy)methyl 3-(tert-butyl)-1-methyl-1H-pyrazole-5-carboxylate]  20.3
10. CC(=O)SCCNC(=O)CCNC(=O)[C@@H]1O[P@@](=O)(OCOC(=O)OC(C)C)OCC1(C)C [R1017, S-(2-(3-((2S,4R)-2-(((isopropoxycarbonyl)oxy)methoxy)-5,5-dimethyl-2-oxido-1,3,2-dioxaphosphinane-4-carboxamido)propanamido)ethyl) ethanethioate]  18.4
11. CC(=O)SCCNC(=O)CCNC(=O)[C@@H]1O[P@@](=O)(OCOC(=O)c2cc(C(C)(C)C)nn2C)OCC1(C)C [R1045, (((2S,4R)-4-((3-((2-(acetylthio)ethyl)amino)-3-oxopropyl)carbamoyl)-5,5-dimethyl-2-oxido-1,3,2-dioxaphosphinan-2-yl)oxy)methyl 3-(tert-butyl)-1-methyl-1H-pyrazole-5-carboxylate]  2.3
12. CC(=O)SCCNC(=O)CCNC(=O)[C@@H]1OP(=O)(OCOC(=O)C(C)C)OCC1(C)C (stereo partly drawn) [R1024, (((4R)-4-((3-((2-(acetylthio)ethyl)amino)-3-oxopropyl)carbamoyl)-5,5-dimethyl-2-oxido-1,3,2-dioxaphosphinan-2-yl)oxy)methyl isobutyrate]  1.4

same assay, conditions: Homo sapiens, IMR-32; compound concentration 10 uM; fold increase in CoA levels relative to controls; treated twice, 24 h + 24 h

In the case of `CC(=O)SCCNC(=O)CCNC(=O)[C@@H]1O[P@@](=O)(OCOC(=O)NCCOC(=O)C(C)(C)C)OCC1(C)C` [R1030, 2-((((((2S,4R)-4-((3-((2-(acetylthio)ethyl)amino)-3-oxopropyl)carbamoyl)-5,5-dimethyl-2-oxido-1,3,2-dioxaphosphinan-2-yl)oxy)methoxy)carbonyl)amino)ethyl pivalate], the fold induction at 10 µM was 7.1.

same assay, conditions: Homo sapiens, IMR-32; compound concentration 50 uM; fold increase in CoA levels relative to controls; treated twice, 24 h + 24 h

In order of falling fold induction at 50 µM:
1. CC(=O)SCCNC(=O)CCNC(=O)[C@@H]1OP(=O)(OCOC(=O)N[C@@H](CSC(=O)C(C)(C)C)C(=O)OCc2ccccc2)OCC1(C)C (stereo partly drawn) [R1029, benzyl N-(((((4R)-4-((3-((2-(acetylthio)ethyl)amino)-3-oxopropyl)carbamoyl)-5,5-dimethyl-2-oxido-1,3,2-dioxaphosphinan-2-yl)oxy)methoxy)carbonyl)-S-pivaloyl-L-cysteinate]  120
2. CC(=O)SCCNC(=O)CCNC(=O)[C@@H]1OP(=O)(OCOC(=O)NC(C)(C)COC(=O)C(C)(C)C)OCC1(C)C (stereo partly drawn) [R1028, 2-((((((4R)-4-((3-((2-(acetylthio)ethyl)amino)-3-oxopropyl)carbamoyl)-5,5-dimethyl-2-oxido-1,3,2-dioxaphosphinan-2-yl)oxy)methoxy)carbonyl)amino)-2-methylpropyl pivalate]  5.7
3. CC(=O)SCCNC(=O)CCNC(=O)[C@@H]1OP(=O)(OCOC(=O)c2ccc(C(F)(F)F)cn2)OCC1(C)C (stereo partly drawn) [R1040, (((4R)-4-((3-((2-(acetylthio)ethyl)amino)-3-oxopropyl)carbamoyl)-5,5-dimethyl-2-oxido-1,3,2-dioxaphosphinan-2-yl)oxy)methyl 5-(trifluoromethyl)picolinate]  4.5
4. CC(=O)OCC(C)(C)NC(=O)OCOP1(=O)OCC(C)(C)[C@H](C(=O)NCCC(=O)NCCSC(C)=O)O1 (stereo partly drawn) [R1027, 2-((((((4R)-4-((3-((2-(acetylthio)ethyl)amino)-3-oxopropyl)carbamoyl)-5,5-dimethyl-2-oxido-1,3,2-dioxaphosphinan-2-yl)oxy)methoxy)carbonyl)amino)-2-methylpropyl acetate]  2.8
5. COC(=O)[C@@H](NP1(=O)OCC(C)(C)[C@H](C(=O)NCCC(=O)NCCSC(C)=O)O1)C(C)C (stereo partly drawn) [R1026, methyl ((4R)-4-((3-((2-(acetylthio)ethyl)amino)-3-oxopropyl)carbamoyl)-5,5-dimethyl-2-oxido-1,3,2-dioxaphosphinan-2-yl)-L-valinate]  2.5
6. COC(=O)[C@@H](N[P@@]1(=O)OCC(C)(C)[C@H](C(=O)NCCC(=O)NCCSC(C)=O)O1)C(C)C [R1014, methyl ((2R,4R)-4-((3-((2-(acetylthio)ethyl)amino)-3-oxopropyl)carbamoyl)-5,5-dimethyl-2-oxido-1,3,2-dioxaphosphinan-2-yl)-L-valinate]  1.7

same assay, conditions: compound concentration 10 uM; fold increase in CoA levels relative to controls; treated twice, 24 h + 24 h

In order of falling “PANK2−/− CoA Fold increase” value:
1. CC(=O)SCCNC(=O)CCNC(=O)[C@@H]1OP(=O)(Oc2ccccc2)OCC1(C)C (stereo partly drawn) [R1043, S-(2-(3-((4R)-5,5-dimethyl-2-oxido-2-phenoxy-1,3,2-dioxaphosphinane-4-carboxamido)propanamido)ethyl) ethanethioate]  1.1 fold
2. CC(=O)SCCNC(=O)CCNC(=O)[C@@H]1O[P@](=O)(Oc2ccccc2)OCC1(C)C [R1042, S-(2-(3-((2R,4R)-5,5-dimethyl-2-oxido-2-phenoxy-1,3,2-dioxaphosphinane-4-carboxamido)propanamido)ethyl) ethanethioate]  1.0 fold
